ChEMBL document CHEMBL1909046, “DrugMatrix in vitro pharmacology data”

What was measured:
[1] = biological target: Matrix metalloproteinase-9 (Homo sapiens, UniProt P14780); experiment: biochemical; type: cell-based;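 further: inhibition of isolated MMP-9 enzyme activity toward a synthetic peptide substrate, from the DrugMatrix protease screening panel; in other assays of this panel Not Active means under 50% inhibition at 10 µM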
Glycine receptor = Glycine receptor (Rattus norvegicus, UniProt P22771+P24524+P07727+P20781); type: cell membranes, Wistar, Spinal cord, Membrane; further: in other assays of this panel Not Active means under 50% inhibition at 10 µM
[2] = biological target: Voltage-gated inwardly rectifying potassium channel KCNH2 (Homo sapiens, UniProt Q12809); conditions: hek293; further: in other assays of this panel Not Active means under 50% inhibition at 10 µM
[3] = DRUGMATRIX: GABAA, Muscimol, Central radioligand binding (ligand: [3H] Muscimol); type: cell membranes, Rattus norvegicus, Wistar, Brain, Membrane; conditions: Not Active = under 50% inhibition at 10 µM
[4] = biological target: T1, C-X-C chemokine receptor type 1 (Homo sapiens, UniProt P25024); further: in other assays of this panel Not Active means under 50% inhibition at 10 µM
T1 sequence (P25024 whole entry): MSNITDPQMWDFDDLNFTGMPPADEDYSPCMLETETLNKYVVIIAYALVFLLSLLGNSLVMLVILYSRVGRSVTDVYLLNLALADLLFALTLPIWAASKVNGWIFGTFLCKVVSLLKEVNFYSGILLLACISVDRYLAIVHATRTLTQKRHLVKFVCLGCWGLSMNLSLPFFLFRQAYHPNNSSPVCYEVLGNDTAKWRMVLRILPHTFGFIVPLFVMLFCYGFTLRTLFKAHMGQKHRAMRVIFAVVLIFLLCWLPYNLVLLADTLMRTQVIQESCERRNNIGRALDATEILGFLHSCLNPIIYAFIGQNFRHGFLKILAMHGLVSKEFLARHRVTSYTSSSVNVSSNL

[5] = DRUGMATRIX: Potassium Channel [KATP] radioligand binding (ligand: [3H] Glyburide); type: cell membranes, Membrane; conditions: hit-t15; Not Active = under 50% inhibition at 10 µM
Cytochrome P450 2A6 = biological target: T2, Cytochrome P450 2A6 (Homo sapiens, UniProt P11509); conditions: bti-tn-5b1-4; further: in other assays of this panel Not Active means under 50% inhibition at 10 µM
T2 sequence (P11509 whole entry): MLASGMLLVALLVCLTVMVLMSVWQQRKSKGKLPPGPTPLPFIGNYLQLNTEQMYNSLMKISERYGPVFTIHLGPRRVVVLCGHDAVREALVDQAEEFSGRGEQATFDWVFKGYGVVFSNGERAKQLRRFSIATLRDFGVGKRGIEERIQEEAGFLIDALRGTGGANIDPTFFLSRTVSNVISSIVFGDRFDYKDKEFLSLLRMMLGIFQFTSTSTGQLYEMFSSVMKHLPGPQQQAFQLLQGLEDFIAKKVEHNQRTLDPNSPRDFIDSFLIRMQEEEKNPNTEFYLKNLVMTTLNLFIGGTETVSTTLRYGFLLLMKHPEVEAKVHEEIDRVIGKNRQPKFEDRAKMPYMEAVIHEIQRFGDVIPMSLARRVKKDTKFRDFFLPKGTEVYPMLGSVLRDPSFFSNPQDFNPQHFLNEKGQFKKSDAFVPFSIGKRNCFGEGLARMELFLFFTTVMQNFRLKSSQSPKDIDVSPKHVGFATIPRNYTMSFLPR

Chain of Voltage-gated inwardly rectifying potassium channel KCNH2 (Q12809 whole entry): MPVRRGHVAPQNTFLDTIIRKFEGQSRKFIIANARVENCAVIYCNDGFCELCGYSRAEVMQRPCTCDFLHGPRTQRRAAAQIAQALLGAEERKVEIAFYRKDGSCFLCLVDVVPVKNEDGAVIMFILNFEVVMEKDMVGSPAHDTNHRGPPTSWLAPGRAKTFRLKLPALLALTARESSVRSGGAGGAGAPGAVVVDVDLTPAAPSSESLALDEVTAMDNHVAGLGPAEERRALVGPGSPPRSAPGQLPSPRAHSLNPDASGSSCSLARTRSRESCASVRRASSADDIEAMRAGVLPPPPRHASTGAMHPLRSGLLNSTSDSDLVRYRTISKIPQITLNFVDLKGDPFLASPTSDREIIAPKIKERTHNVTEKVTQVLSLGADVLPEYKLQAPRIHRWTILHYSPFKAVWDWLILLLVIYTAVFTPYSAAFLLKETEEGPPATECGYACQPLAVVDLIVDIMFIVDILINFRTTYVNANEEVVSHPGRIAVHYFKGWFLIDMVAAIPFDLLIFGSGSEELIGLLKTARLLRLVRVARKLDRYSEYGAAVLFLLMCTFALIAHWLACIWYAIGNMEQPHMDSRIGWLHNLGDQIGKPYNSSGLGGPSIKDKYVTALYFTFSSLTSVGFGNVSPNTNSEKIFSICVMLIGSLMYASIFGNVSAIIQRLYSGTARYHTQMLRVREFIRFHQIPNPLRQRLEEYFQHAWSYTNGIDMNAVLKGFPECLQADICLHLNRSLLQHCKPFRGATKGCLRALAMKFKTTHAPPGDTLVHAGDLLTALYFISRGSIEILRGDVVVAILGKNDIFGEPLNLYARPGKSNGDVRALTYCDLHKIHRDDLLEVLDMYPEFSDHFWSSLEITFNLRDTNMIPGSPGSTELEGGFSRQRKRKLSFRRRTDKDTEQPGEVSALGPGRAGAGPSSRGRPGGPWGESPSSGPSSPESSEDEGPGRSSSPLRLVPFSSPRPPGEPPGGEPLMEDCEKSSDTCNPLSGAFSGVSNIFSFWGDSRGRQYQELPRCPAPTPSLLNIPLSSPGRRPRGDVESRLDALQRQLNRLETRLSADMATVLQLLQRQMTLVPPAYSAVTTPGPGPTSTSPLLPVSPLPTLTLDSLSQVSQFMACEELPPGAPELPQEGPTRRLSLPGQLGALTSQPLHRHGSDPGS
Chain of Matrix metalloproteinase-9 (P14780 whole entry): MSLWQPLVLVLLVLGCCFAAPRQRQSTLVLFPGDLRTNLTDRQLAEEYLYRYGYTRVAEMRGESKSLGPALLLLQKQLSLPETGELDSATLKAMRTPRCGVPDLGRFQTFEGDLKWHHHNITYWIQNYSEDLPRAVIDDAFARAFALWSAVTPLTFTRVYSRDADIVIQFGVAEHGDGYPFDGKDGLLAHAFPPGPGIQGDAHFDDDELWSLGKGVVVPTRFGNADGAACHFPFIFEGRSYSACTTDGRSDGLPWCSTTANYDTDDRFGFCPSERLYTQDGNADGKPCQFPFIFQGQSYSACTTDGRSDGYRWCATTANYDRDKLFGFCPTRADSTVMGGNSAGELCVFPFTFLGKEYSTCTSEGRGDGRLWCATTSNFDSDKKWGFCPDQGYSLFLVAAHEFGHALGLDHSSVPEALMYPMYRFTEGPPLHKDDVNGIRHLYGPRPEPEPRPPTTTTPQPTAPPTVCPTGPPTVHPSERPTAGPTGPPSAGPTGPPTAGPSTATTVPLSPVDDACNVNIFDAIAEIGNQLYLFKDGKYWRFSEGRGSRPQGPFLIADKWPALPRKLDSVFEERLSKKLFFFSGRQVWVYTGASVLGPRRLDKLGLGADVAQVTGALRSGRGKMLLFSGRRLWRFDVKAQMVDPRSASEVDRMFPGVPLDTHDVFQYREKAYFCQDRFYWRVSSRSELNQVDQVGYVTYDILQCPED

CC(C)(Oc1ccc(C2CC2(Cl)Cl)cc1)C(=O)O (configuration not stated) [CIPROFIBRATE]
Not Active: IC50 [1] | IC50 (Glycine receptor) | IC50 [2] | Ki [2] | IC50 [3] | Ki [3] | IC50 [4] | IC50 [5] | Ki [5] | IC50 (Cytochrome P450 2A6) | Ki (Cytochrome P450 2A6)

CCc1oc2ccccc2c1C(=O)c1cc(Br)c(O)c(Br)c1 [BENZBROMARONE]
Not Active: IC50 [1] | IC50 (Glycine receptor) | IC50 [2] | Ki [2] | IC50 [3] | Ki [3] | IC50 [4] | IC50 [5] | Ki [5] | IC50 (Cytochrome P450 2A6) | Ki (Cytochrome P450 2A6)

CN1C[C@H](C(=O)N[C@]2(C)O[C@@]3(O)[C@@H]4CCCN4C(=O)[C@H](Cc4ccccc4)N3C2=O)C[C@@H]2c3cccc4[nH]cc(c34)C[C@H]21 [DIHYDROERGOTAMINE]
Not Active: IC50 [1] | IC50 (Glycine receptor) | IC50 [2] | Ki [2] | IC50 [3] | Ki [3] | IC50 [4] | IC50 [5] | Ki [5] | IC50 (Cytochrome P450 2A6) | Ki (Cytochrome P450 2A6)

CNC(=C[N+](=O)[O-])NCCSCc1csc(CN(C)C)n1 [NIZATIDINE]
Not Active: IC50 [1] | IC50 (Glycine receptor) | IC50 [2] | Ki [2] | IC50 [3] | Ki [3] | IC50 [4] | IC50 [5] | Ki [5] | IC50 (Cytochrome P450 2A6) | Ki (Cytochrome P450 2A6)

CC(=O)O[C@]1(C(C)=O)CC[C@H]2[C@@H]3C=C(Cl)C4=CC(=O)[C@@H]5C[C@@H]5[C@]4(C)[C@H]3CC[C@@]21C [CYPROTERONE ACETATE]
Not Active: IC50 [1] | IC50 (Glycine receptor) | IC50 [2] | Ki [2] | IC50 [3] | Ki [3] | IC50 [4] | IC50 [5] | Ki [5] | IC50 (Cytochrome P450 2A6) | Ki (Cytochrome P450 2A6)

CN(Cc1cnc2nc(N)nc(N)c2n1)c1ccc(C(=O)N[C@@H](CCC(=O)O)C(=O)O)cc1 [METHOTREXATE]
Not Active: IC50 [1] | IC50 (Glycine receptor) | IC50 [2] | Ki [2] | IC50 [3] | Ki [3] | IC50 [4] | IC50 [5] | Ki [5] | IC50 (Cytochrome P450 2A6) | Ki (Cytochrome P450 2A6)

CC(CCc1ccc(O)cc1)NCCc1ccc(O)c(O)c1 (configuration not stated) [DOBUTAMINE]
Not Active: IC50 [1] | IC50 (Glycine receptor) | IC50 [2] | Ki [2] | IC50 [3] | Ki [3] | IC50 [4] | IC50 [5] | Ki [5] | IC50 (Cytochrome P450 2A6) | Ki (Cytochrome P450 2A6)

Nc1nc(Cl)nc2c1ncn2[C@H]1C[C@H](O)[C@@H](CO)O1 [CLADRIBINE]
Not Active: IC50 [1] | IC50 (Glycine receptor) | IC50 [2] | Ki [2] | IC50 [3] | Ki [3] | IC50 [4] | IC50 [5] | Ki [5] | IC50 (Cytochrome P450 2A6) | Ki (Cytochrome P450 2A6)

Cc1cccc(Nc2cc(Cl)nc(SCC(=O)O)n2)c1C [PIRINIXIC ACID]
Not Active: IC50 [1] | IC50 (Glycine receptor) | IC50 [2] | Ki [2] | IC50 [3] | Ki [3] | IC50 [4] | IC50 [5] | Ki [5] | IC50 (Cytochrome P450 2A6) | Ki (Cytochrome P450 2A6)

INSULIN HUMAN
Not Active: IC50 [1] | Ki [1] | IC50 (Glycine receptor) | Ki (Glycine receptor) | IC50 [2] | Ki [2] | IC50 [3] | Ki [3] | IC50 [4] | Ki [4] | IC50 [5] | Ki [5] | IC50 (Cytochrome P450 2A6) | Ki (Cytochrome P450 2A6)

CCn1cc(C(=O)O)c(=O)c2cc(F)c(N3CCNCC3)nc21 [ENOXACIN]
Not Active: IC50 [1] | IC50 (Glycine receptor) | IC50 [2] | Ki [2] | IC50 [3] | Ki [3] | IC50 [4] | IC50 [5] | Ki [5] | IC50 (Cytochrome P450 2A6) | Ki (Cytochrome P450 2A6)

O=C(O)c1cc(=O)c2c(OCC(O)COc3cccc4oc(C(=O)O)cc(=O)c34)cccc2o1 [CROMOLYN]
Not Active: IC50 [1] | IC50 (Glycine receptor) | IC50 [2] | Ki [2] | IC50 [3] | Ki [3] | IC50 [4] | IC50 [5] | Ki [5] | IC50 (Cytochrome P450 2A6) | Ki (Cytochrome P450 2A6)

CC(=O)OCC(CCn1cnc2cnc(N)nc21)COC(C)=O [FAMCICLOVIR]
Not Active: IC50 [1] | IC50 (Glycine receptor) | IC50 [2] | Ki [2] | IC50 [3] | Ki [3] | IC50 [4] | IC50 [5] | Ki [5] | IC50 (Cytochrome P450 2A6) | Ki (Cytochrome P450 2A6)

O=P1(N(CCCl)CCCl)NCCCO1 (configuration not stated) [CYCLOPHOSPHAMIDE ANHYDROUS]
Not Active: IC50 [1] | IC50 (Glycine receptor) | IC50 [2] | Ki [2] | IC50 [3] | Ki [3] | IC50 [4] | IC50 [5] | Ki [5] | IC50 (Cytochrome P450 2A6) | Ki (Cytochrome P450 2A6)

O=c1cc(-c2ccccc2)oc2ccc3ccccc3c12 [BETA-NAPHTHOFLAVONE]
Not Active: IC50 [1] | IC50 (Glycine receptor) | IC50 [2] | Ki [2] | IC50 [3] | Ki [3] | IC50 [4] | IC50 [5] | Ki [5] | IC50 (Cytochrome P450 2A6) | Ki (Cytochrome P450 2A6)

CC(C)(Sc1cc(C(C)(C)C)c(O)c(C(C)(C)C)c1)Sc1cc(C(C)(C)C)c(O)c(C(C)(C)C)c1 [PROBUCOL]
Not Active: IC50 [1] | IC50 (Glycine receptor) | IC50 [2] | Ki [2] | IC50 [3] | Ki [3] | IC50 [4] | IC50 [5] | Ki [5] | IC50 (Cytochrome P450 2A6) | Ki (Cytochrome P450 2A6)

CO[C@@]1(NC(=O)CSCC#N)C(=O)N2C(C(=O)O)=C(CSc3nnnn3C)CS[C@@H]21 [CEFMETAZOLE]
Not Active: IC50 [1] | IC50 (Glycine receptor) | IC50 [2] | Ki [2] | IC50 [3] | Ki [3] | IC50 [4] | IC50 [5] | Ki [5] | IC50 (Cytochrome P450 2A6) | Ki (Cytochrome P450 2A6)

CC(=O)O[C@]1(C(C)=O)CC[C@H]2[C@@H]3C=C(C)C4=CC(=O)CC[C@]4(C)[C@H]3CC[C@@]21C [MEGESTROL ACETATE]
Not Active: IC50 [1] | IC50 (Glycine receptor) | IC50 [2] | Ki [2] | IC50 [3] | Ki [3] | IC50 [4] | IC50 [5] | Ki [5] | IC50 (Cytochrome P450 2A6) | Ki (Cytochrome P450 2A6)

COc1cc(CNC(=O)CCCC/C=C/C(C)C)ccc1O [CAPSAICIN]
Not Active: IC50 [1] | IC50 (Glycine receptor) | IC50 [2] | Ki [2] | IC50 [3] | Ki [3] | IC50 [4] | IC50 [5] | Ki [5] | IC50 (Cytochrome P450 2A6) | Ki (Cytochrome P450 2A6)
